From patent EP1541559A1, “5-SUBSTITUTED ISOQUINOLINE DERIVATIVE” (Asahi Kasei Pharma Corporation, priority 2002, dated 2004)
Structures can show the parent of a compound that is named as a salt. Where two headings read alike, the source gives them in different places.

Experiments:
[1] = tested on: myosin regulatory light chain; assay: Action on amount of phosphorylated myosin regulatory light chain in the cells (Test Example 1); assay type: cell-based, human; conditions: neutrophils of healthy volunteers, reaction with test compound at 25°C for 5 minutes, read-out: Inhibition of myosin regulatory light chain phosphorylation (IC50: µM)
Procedure, shortened: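 Neutrophil suspension (5 x 10^6/ml, HBSS) reacted 5 min at 25 °C with test compound at various concentrations. TCA-stopped, urea-extracted and run on SDS-PAGE, then immunoblotted with antibody specific for phosphorylated myosin regulatory light chain, detected by HRP/ECL and quantified by densitometry. Result given as % inhibition of phosphorylation.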

thoracic aorta = assay: Vasoconstriction inhibitory action on aorta rings constricted with phenylephrine (Test Example 2); parameters: species or system Rats (Wistar, 11-week old); conditions: aorta constricted with phenylephrine (1 µM); for vasoconstriction inhibitory action: result in words; for inhibition at 1 µM: Rattus norvegicus, test compound 1 µM, read-out: Vasoconstriction inhibitory action (relaxation ratio) (%)
Text: Rats (Wistar, 11-week old) were bleeded to death and laparotomized to take out the thoracic aorta.

[2] = tested on: ovalbumin-immunized guinea pigs; assay: Respiratory tract constriction suppression action, ovalbumin-induced (Test Example 3); assay type: in vivo, Hartley guinea pigs; conditions: result in words; test medicament given into hind leg vein after induction with 0.3 mg/kg ovalbumin, measured for 15 minutes
Protocol: Four-week old Hartley guinea pigs (male) were immunized by intraperitoneal administration of ovalbumin (Sigma, Grade V) in amounts of 1 mg for each animal on the day on which the experiment was started, 3 mg for each animal after 2 days, and 10 mg for each animal after 4 days. Twelve to fourteen days after the final immunization, the ovalbumin-immunized guinea pigs were anesthetized by intraperitoneal administration of about 40 mg/kg of pentobarbital (Somnopentyl), and the tracheas were taken out. Subsequently, a cannula (SP-110, Natsume) was inserted into each trachea, and one end of the cannula was connected to an artificial respirator (Model-b83, Harvard). The aeration conditions were set at 6 ml per kilogram and 60 times per 1 minute. Further, a cannula for medicament administration (JMS wing needle 23G 3/4) was inserted into a hind leg vein. Myoblock (Organon Technica) was administered in an amount of 0.5 mg/kg from the cannula inserted into the hind leg vein to stop the spontaneous breathing, and after 2 or 3 minutes, 0.3 mg/kg of ovalbumin was administered to induce constriction of respiratory tract. The increase of airway resistance value 2 minutes after the induction (measurement apparatuses: pressure transducer TR-603T, respiratory amplifier AR-601G, and recorder RTA-3100, Nihon Kohden Corp.) was confirmed to be above 80 cm H2O or higher, and then, a solution of a test medicament was administered from the cannula inserted into the hind leg vein, and the airway resistance value was continuously measured for 15 minutes after the administration to determine the effect.

Neutrophils = assay: Neutrophil migration inhibitory action, Boyden Chamber, FMLP (Test Example 5); assay type: cell-based, human; conditions: Homo sapiens, Neutrophil, 0.5 h, FMLP (1 µM), migration at 37°C for 30 minutes; read-out: Neutrophil migration inhibition IC50
Procedure, shortened: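 Neutrophils from healthy donors' peripheral blood (8 x 10^6/ml) were preincubated 5 min at room temperature with compound. Migrated cells were stained and absorbance read at 595 nm; inhibition (%) was calculated against compound-free wells.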

BALB/c female mice = assay: Respiratory tract inflammation suppressing action, OVA-induced (Test Example 6); assay type: in vivo; conditions: for Total WBC count x 10E5/ml/mouse: orally 30 mg/kg once a day for 5 days, inhalation of 2% OVA, alveoli washed after 24 hours
Protocol: According to the method described in Henderson, W.R., et al., Am. J. Respir. Cric. Care Med., 165(1), 108-116 (2002), suppressing action on bronchial inflammation was confirmed. BALB/c female mice (7-week old) were used for the test, each group consisting of 7 mice, and the control group consisting of 11 or 12 mice. The mice were intraperitoneally administered with ovalbumin (OVA, 100 ng, Sigma) and 1 mg of aluminum hydroxide for initial immunization, and after 2 weeks, they are subcutaneously administered with 10 ng of OVA as additional immunization. After further 1 week, a test compound was dissolved in water containing 0.5% carboxymethylcellulose and orally administered (30 mg/kg) to the test animals once a day for 5 days. The control group was similarly given only with water containing 0.5% carboxymethylcellulose. After 1 hour, the mice were orally inhaled with 2% OVA for 10 minutes to induce a respiratory tract inflammation. Further, the control group, in which the mice were not given with the test compound, was divided into a positive control group (n = 7), in which the mice were inhaled with 2% OVA to induce the reaction, and a negative control group (n = 4 or 5), in which the mice were similarly inhaled with physiological saline. After 24 hours, alveoli in the lungs of the test animals were washed with physiological saline, and the total infiltrated white blood cells (WBC) were counted.

[3] = tested on: human neutrophil fraction; assay: Action on increase of intracellular calcium concentration, Fura2-AM, fMLP (Test Example 7); assay type: cell-based; conditions: test compound 1 µM added 3 minutes before fMLP (1 µM), R = F340/F380, without test compound = 100%, read-out: Maximum R value (%)
Protocol: According to the method described in Test Example 1, a neutrophil containing fraction was prepared. Fura2-AM (Sigma) at a final concentration of 3 µM was added to the human neutrophil fraction and the mixture was incubated at 37°C for 1 hour. After centrifugation (250 g for 5 minutes), the supernatant was discarded, and the neutrophils were resuspended in Hanks' Balanced Salt Solution (HBSS, Gibco) to prepare a cell suspension (8 x 10^6/ml) for measurement of intracellular calcium concentration. The cell suspension for measurement of intracellular calcium concentration was left stand at room temperature for 30 minutes. Then, 490 µl of the cell suspension for measurement of intracellular calcium concentration was placed in a cuvette, 10 µl of calcium chloride solution at a final concentration of […] was added to it and the cuvette was set in an intracellular calcium concentration analyzer (CAF110, Nippon Bunko). fMLP (Sigma) solution at a final concentration of 1 µM was added to the cell suspension, and F340 and F380, which are fluorescence intensity at 340 nm and 380 nm, respectively, were measured to obtain an R value (F340/F380) as an index of the intracellular calcium concentration. A test compound (1 µM) was added 3 minutes before the addition of fMLP, and the action on the intracellular calcium concentration was observed. The ratios of the maximum R value obtained with addition of each test compound, based on the maximum R value obtained without addition of test compound and taken as 100%, are shown in Table 10 mentioned below.

Japanese white rabbit = assay: Intraocular pressure reducing action (Test Example 4); assay type: in vivo; conditions: Oryctolagus cuniculus, topical; 50 µl of test compound (1% aqueous solution) dropped to the left eye, after 2 hours; read-out: Intraocular pressure reducing action (reduction ratio) (%)
Protocol: A Japanese white rabbit having a body weight of about 2 kg was placed in a positioner and naturalized for one week before the experiment. An ophthalmologic local […] (Benoxil) was administered to the left eye, and then intraocular pressure was measured by using a tonometer (Classic 30, Solan). The initial value of the intraocular pressure was measured, then 50 μl of a test compound (1% aqueous solution) was dropped to the left eye, and after 2 hours, the intraocular pressure was measured. The intraocular pressure reducing action of the test compounds is shown in Table 7 mentioned below as ratios (%) of reduction of intraocular pressure based on the initial value of the intraocular pressure.

[4] = tested on: myosin light chain phosphorylation enzyme (MLCK); assay: Action on myosin light chain phosphorylation enzyme (MLCK) activity, ELISA (second Test Example 7); assay type: biochemical, chicken; conditions: result in words
Protocol: A myosin light chain phosphorylation enzyme (MLCK) was purified from chicken gizzard smooth muscle by a conventional method (Yoshida, M., et al., J. Biochem., 99, 1027-1036 (1986)). The myosin regulatory light chain as a substrate was purified from the chicken gizzard smooth muscle by a conventional method (Grand, R. J., et al., Biochem. J., 211, 267-272 (1983)). The MLCK activity was measured by ELISA using pLC1 described in Test Example 1 (Sakurada, K., et al., J. Biochem., 115, 18-21 (1994)). […] In a volume of 100 µ1 each of 20% aqueous phosphoric acid solution was added to each well to terminate the enzymatic reaction. Each well was washed with 25 mM Tris/HCl buffer (TTBS) containing 0.1% Tween 20, and then 100 µl each of pLC1 described in Test Example 1 was added to each well and incubated at room temperature for 90 minutes. Each well was washed with TTBS, and then 100 µl of the HRP-labeled rabbit anti-mouse IgG antibodies (Bio-Rad) were added to each well and incubated at room temperature for 90 minutes. […] 50 µl of 4 N sulfuric acid was added to each well to terminate the reaction, and then absorbance was measured by using an immunoplate reader (Bio-Rad).

[5] = Homo sapiens, Neutrophil, 5 min

Compound: Cl.NCCCN(CCc1cccs1)S(=O)(=O)c1cccc2cnccc12 [Example 2, N-[(5-Isoquinolyl)sulfonyl]-N-[2-(2-thienyl)ethyl]-1,3-propylenediamine hydrochloride]
- IC50 [1, 5]: 0.8 µM
- vasoconstriction inhibitory action (thoracic aorta): significant vasoconstriction inhibitory action
- constriction of respiratory tract (airway resistance value) [2]: significantly improved the constriction of respiratory tract
- IC50 (Neutrophils): 1 to 10 µM
- Total WBC count x 10E5/ml/mouse (BALB/c female mice): 200 x 10E5/ml/mouse
- activity at 1 µM [3]: 99%

Compound: Cl.NCCCN(CCCc1ccccc1)S(=O)(=O)c1cccc2cnccc12 [Example 1, N-[(5-Isoquinolyl)sulfonyl]-N-(3-phenylpropyl)-1,3-propylenediamine hydrochloride]
- IC50 [1, 5]: 0.8 µM
- inhibition at 1 µM (thoracic aorta): 73.8%
- IC50 (Neutrophils): ≤ 1 µM
- Total WBC count x 10E5/ml/mouse (BALB/c female mice): 300 x 10E5/ml/mouse
- activity at 1 µM [3]: 98%

Compound: Cl.NCCN(CCS(=O)(=O)c1ccccc1)S(=O)(=O)c1cccc2cnccc12 [Example 7, N-[(5-Isoquinolyl)sulfonyl]-N-[2-(phenylsulfonyl)ethyl]ethylenediamine hydrochloride]
- IC50 [1, 5]: 30 µM
- inhibition at 1 µM (thoracic aorta): 64.3%
- Total WBC count x 10E5/ml/mouse (BALB/c female mice): 400 x 10E5/ml/mouse
- activity at 1 µM [3]: 101%

Compound: Cc1cncc2cccc(NC3CCNCC3)c12.Cl [Example 106, 4-(4-Methyl-5-isoquinolyl)aminopiperidine hydrochloride]
- IC50 [1, 5]: ≤ 40 µM
- IC50 ([1]; hydrochloride): ≤ 20 µM
- vasoconstriction inhibitory action (thoracic aorta): significant vasoconstriction inhibitory action
- constriction of respiratory tract (airway resistance value) [2]: significantly improved the constriction of respiratory tract
- IC50 (Neutrophils): 10 to 40 µM
- infiltrated white blood cell number (BALB/c female mice; result in words): decrease of infiltrated white blood cell number

Compound: Cl.NCCCOc1cccc2c(N)nccc12 [Example 10, 3-[(1-Amino-5-isoquinolyl)oxy]propylamine hydrochloride]
- IC50 [1, 5]: 10 µM
- IC50 (Neutrophils): 1 to 10 µM
- Total WBC count x 10E5/ml/mouse (BALB/c female mice): 150 x 10E5/ml/mouse
- activity at 1 µM [3]: 99%

Compound: c1cc(NC2CCCNC2)c2ccncc2c1 (racemic) [Example 29, 3-N-(5-Isoquinolyl)aminopiperidine hydrochloride]
- IC50 [1, 5]: ≤ 40 µM
- IC50 ([1]; hydrochloride): ≤ 20 µM
- constriction of respiratory tract (airway resistance value) [2]: significantly improved the constriction of respiratory tract
- inhibition in vivo at 1 % (Japanese white rabbit): 18.8%
- IC50 (Neutrophils): ≤ 40 µM
- inhibition of MLCK [4]: did not inhibit MLCK

Compound: Cl.NCCN(CCS(=O)(=O)c1ccccc1)S(=O)(=O)c1cccc2c(O)nccc12 [Example 12, N-[(1-Hydroxy-5-isoquinolyl)sulfonyl]-N-[2-(phenylsulfonyl)ethyl]ethylenediamine hydrochloride]
- IC50 [1, 5]: 20 µM
- vasoconstriction inhibitory action (thoracic aorta): significant vasoconstriction inhibitory action
- constriction of respiratory tract (airway resistance value) [2]: significantly improved the constriction of respiratory tract
- IC50 (Neutrophils): 1 to 10 µM
- Total WBC count x 10E5/ml/mouse (BALB/c female mice): 100 x 10E5/ml/mouse
